Laboratory results: patent publication US12582731B2, “Method to decontaminate solid surface” (BIOMONETA RESEARCH PVT LTD, priority 2022, dated 2026)
“And” between values parts separate entries of the source, which are not always exact repeats. Equal values may be shown once.

Columns and labels:
Format in all cases: cell-based
microbial load [1] = assay: Microbial load reduction on QAC-coated cotton cloth with or without electric field; settings: cotton cloth coated with 0.01% w/v
Description: The effect of QAC coating and electric field application on flexible solid surfaces was analysed. The solid surface analysed was fabric (cotton cloth). The procedure for coating of QAC (CTAB or benzalkonium chloride) onto the cotton cloth was identical to the procedure described in Example 1. The final coated amount of QAC (CTAB or benzalkonium chloride) was between 0.01-0.05 mg/cm^2 of the solid surface. The electric field in this experiment was applied via. switch mode power supply (SMPS) with a voltage of 4 kV/cm coupled with a capacitance of 0.05 μF for various time-periods.
Reduction in microbial load was analysed using different methods.

microbial load [2] = assay: Microbial load reduction on CTAB-coated polyester cotton fabric, electric field with varying voltage; settings: for Microbial load reduction (Log10 scale) at 10 mins: polyester cotton fabric, 0.02±0.005% w/v coating, capacitance 0.05 μF
Description: Another set of experiments were conducted wherein the procedure for coating of QAC (CTAB) onto the polyester cotton fabric was identical to the procedure described in Example 1. The CTAB concentration employed was 0.02±0.005% w/v and the final coated amount of QAC (CTAB) was between 0.01-0.05 mg/cm^2 of the solid surface. The electric field in this experiment was applied via. switch mode power supply (SMPS).

microbial load [3] = assay: Microbial load reduction on CTAB-coated polyester cotton fabric, electric field with varying capacitance; settings: for Microbial Load Reduction (Log10 Scale): polyester cotton fabric 90:10, 0.02±0.005% w/v coating, electric field 4 kV/cm DC
Description: The effect of QAC coating and varying electric field application on solid surfaces was analysed. The solid surface analysed was polyester cotton fabric in the ratio 90:10. The procedure for coating of QAC (CTAB) onto the said polyester cotton fabric was identical to the procedure described in Example 1. The CTAB concentration employed was 0.02±0.005% w/v and the final coated amount of QAC (CTAB) was between 0.01-0.05 mg/cm^2 of the solid surface. The electric field in this experiment was applied via. switch mode power supply (SMPS).

microbial load [4] = assay: Microbial load reduction on QAC-coated metal surface (aluminium plate) with or without electric field
Description: The effect of QAC coating and electric field application on non-flexible/hard solid surfaces was analysed. The solid surface analysed was a metal surface (aluminium plate). The coating procedure of QAC (cetrimonium salt—CTAB) was identical to the procedure described in Example 1. The final coated amount of CTAB was between 0.01-0.05 mg/cm^2 of the solid surface. The electric field in this experiment was applied via. switch mode power supply (SMPS) with a voltage of 4 kV/cm coupled with a capacitance of 0.05 μF for various time-periods.
It was observed that when the metal was coated with low concentration of cetrimonium salt (CTAB) followed by application of electric field, the subjected microbial load was completely eliminated (>7 log10 reduction in microbial load or >99.99999% reduction in microbial load) within 10 minutes [Experiment No. 4]. […] Lastly, under normal conditions, when the metal was left undisturbed, the microbial load remained largely unaltered over a period of 30 minutes [Experiment No. 1].

SMILES: CCCCCCCCCCCCCCCC[N+](C)(C)C.[Br-] [CTAB, cetyltrimethylammonium bromide]
- Microbial Load Reduction (Log10 Scale) (microbial load [1]; With Electric Field (SMPS, 4 kV/cm, 0.05 μF), 30 mins): 7.48 Log10 and 7.30 Log10
- Microbial Load Reduction (Log10 Scale) (microbial load [1]; Without Electric Field, 0 mins): 0.00 Log10
- Microbial Load Reduction (Log10 Scale) (microbial load [1]; Without Electric Field, 10 mins): 1.09 Log10 and 1.06 Log10
- Microbial Load Reduction (Log10 Scale) (microbial load [1]; Without Electric Field, 30 mins): 2.16 Log10 and 2.15 Log10
- reduction in the microbial load (microbial load [2]; coating followed by electric field at voltage lower than 2 kV/cm (0.5, 0.75, 1 or 1.25 kV/cm)): no notable reduction in the microbial load
- Microbial load reduction (Log10 scale) at 10 mins (microbial load [2]; applied voltage 0.5 kV/cm): 1.18 Log10
- Microbial load reduction (Log10 scale) at 10 mins (microbial load [2]; applied voltage 0.75 kV/cm): 1.22 Log10
- Microbial load reduction (Log10 scale) at 10 mins (microbial load [2]; applied voltage 1 kV/cm): 1.44 Log10
- Microbial load reduction (Log10 scale) at 10 mins (microbial load [2]; applied voltage 1.25 kV/cm): 1.68 Log10
- Microbial load reduction (Log10 scale) at 10 mins (microbial load [2]; applied voltage 2 kV/cm): 7.68 Log10
- Microbial load reduction (Log10 scale) at 10 mins (microbial load [2]; applied voltage 2.5 kV/cm): 8.78 Log10
- Microbial load reduction (Log10 scale) at 10 mins (microbial load [2]; applied voltage 3 kV/cm): 9.42 Log10
- reduction in the microbial load (microbial load [3]; coating followed by electric field at capacitance 0.00025 μF or 0.000025 μF (Experiments 4 and 5)): a notable reduction in the microbial load was observed only around 5 minutes
- Microbial Load Reduction (Log10 Scale) (microbial load [3]; capacitance 0.000025 μF, 3 mins): 1.01 Log10
- Microbial Load Reduction (Log10 Scale) (microbial load [3]; capacitance 0.000025 μF, 4 mins): 2.09 Log10
- Microbial Load Reduction (Log10 Scale) (microbial load [3]; capacitance 0.000025 μF, 5 mins): 3.20 Log10
- Microbial Load Reduction (Log10 Scale) (microbial load [3]; capacitance 0.00025 μF, 3 mins): 1.01 Log10
- Microbial Load Reduction (Log10 Scale) (microbial load [3]; capacitance 0.00025 μF, 4 mins): 3.20 Log10
- Microbial Load Reduction (Log10 Scale) (microbial load [3]; capacitance 0.00025 μF, 5 mins): 4.44 Log10
- Microbial Load Reduction (Log10 Scale) (microbial load [3]; capacitance 0.0025 μF, 3 mins): 2.12 Log10
- Microbial Load Reduction (Log10 Scale) (microbial load [3]; capacitance 0.0025 μF, 4 mins): 3.27 Log10
- Microbial Load Reduction (Log10 Scale) (microbial load [3]; capacitance 0.0025 μF, 5 mins): 6.78 Log10
- Microbial Load Reduction (Log10 Scale) (microbial load [3]; capacitance 0.025 μF, 3 mins): 4.32 Log10
- Microbial Load Reduction (Log10 Scale) (microbial load [3]; capacitance 0.025 μF, 4 mins): 6.78 Log10
- Microbial Load Reduction (Log10 Scale) (microbial load [3]; capacitance 0.025 μF, 5 mins): 6.78 Log10
- Microbial Load Reduction (Log10 Scale) (microbial load [3]; capacitance 0.05 μF, 3 mins): 4.44 Log10
- Microbial Load Reduction (Log10 Scale) (microbial load [3]; capacitance 0.05 μF, 4 mins): 6.78 Log10
- Microbial Load Reduction (Log10 Scale) (microbial load [3]; capacitance 0.05 μF, 5 mins): 6.78 Log10
- Microbial Load Reduction (Log10 Scale) (microbial load [4]; Metal (aluminium plate) + QAC 0.01% w/v + Electric Field (SMPS, 4 kV/cm, 0.05 μF), 0 mins): 0.00 Log10
- Microbial Load Reduction (Log10 Scale) (microbial load [4]; Metal (aluminium plate) + QAC 0.01% w/v + Electric Field (SMPS, 4 kV/cm, 0.05 μF), 5 mins): 5.55 Log10
- Microbial Load Reduction (Log10 Scale) (microbial load [4]; Metal (aluminium plate) + QAC 0.01% w/v + Electric Field (SMPS, 4 kV/cm, 0.05 μF), 10 mins): 7.51 Log10
- Microbial Load Reduction (Log10 Scale) (microbial load [4]; Metal (aluminium plate) + QAC 0.01% w/v + Electric Field (SMPS, 4 kV/cm, 0.05 μF), 20 mins): 7.51 Log10
- Microbial Load Reduction (Log10 Scale) (microbial load [4]; Metal (aluminium plate) + QAC 0.01% w/v + Electric Field (SMPS, 4 kV/cm, 0.05 μF), 30 mins): 7.51 Log10
- Microbial Load Reduction (Log10 Scale) (microbial load [4]; Metal (aluminium plate) + QAC 0.01% w/v, no electric field, 0 mins): 0.00 Log10
- Microbial Load Reduction (Log10 Scale) (microbial load [4]; Metal (aluminium plate) + QAC 0.01% w/v, no electric field, 5 mins): 0.22 Log10
- Microbial Load Reduction (Log10 Scale) (microbial load [4]; Metal (aluminium plate) + QAC 0.01% w/v, no electric field, 10 mins): 0.42 Log10
- Microbial Load Reduction (Log10 Scale) (microbial load [4]; Metal (aluminium plate) + QAC 0.01% w/v, no electric field, 20 mins): 0.57 Log10
- Microbial Load Reduction (Log10 Scale) (microbial load [4]; Metal (aluminium plate) + QAC 0.01% w/v, no electric field, 30 mins): 0.95 Log10
- reduction in the microbial load (microbial load [4]; metal coated with CTAB alone, at 30 minutes (Experiment No. 3)): no significant reduction in the microbial load
